Reference: patent US20160038468A1 (priority 2013, published 2016)
Values after ≈ are worked out from the molar mass of the structure shown. Like-named read-outs stand apart in the source and are kept apart here.

Legend:
Type in all cases: cell-based
[1] = test system: Prevotella amnii; experiment: Agar dilution MIC (CLSI), Prevotella amnii vaginal isolates; settings: for MIC: read-out: Minimal Inhibitory Concentration (MIC)
[2] = test system: Peptoniphilus harei; experiment: Agar dilution MIC (CLSI), Peptoniphilus harei vaginal isolates; settings: for MIC: read-out: Minimal Inhibitory Concentration (MIC)
[3] = test system: Prevotella bivia; experiment: Agar dilution MIC (CLSI), Prevotella bivia vaginal isolates; settings: for Number of strains with indicated MIC: 34 samples; for MIC: Prevotella bivia, read-out: Minimal Inhibitory Concentration (MIC)
[4] = Peptoniphilus harei, # tested 23

## Cc1ncc([N+](=O)[O-])n1CCO [Metronidazole]
[1]; # tested 33
  MIC Range: 0.25 to 2 µg/mL
[1]; MIC […], 33 samples
  Number of strains with indicated MIC: 1
[1]; Prevotella amnii, isolate 601203 4
  MIC: 1 µg/mL (≈ 5.84 µM)
[1]; Prevotella amnii, isolate 601256 11
  MIC: 1 µg/mL (≈ 5.84 µM)
[1]; Prevotella amnii, isolate 601258 25
  MIC: 0.5 µg/mL (≈ 2.92 µM)
[1]; Prevotella amnii, isolate 601261 E
  MIC: 1 µg/mL (≈ 5.84 µM)
[1]; Prevotella amnii, isolate 601266 20
  MIC: 0.5 µg/mL (≈ 2.92 µM)
[1]; Prevotella amnii, isolate 601278 10
  MIC: 1 µg/mL (≈ 5.84 µM)
[1]; Prevotella amnii, isolate 601287 HH
  MIC: 0.5 µg/mL (≈ 2.92 µM)
[1]; Prevotella amnii, isolate 601291 41
  MIC: 1 µg/mL (≈ 5.84 µM)
[1]; Prevotella amnii, isolate 601293 29
  MIC: 1 µg/mL (≈ 5.84 µM)
[1]; Prevotella amnii, isolate 601305 A
  MIC: 2 µg/mL (≈ 11.7 µM)
[1]; Prevotella amnii, isolate 601311 K
  MIC: 0.5 µg/mL (≈ 2.92 µM)
[1]; Prevotella amnii, isolate 601314 19
  MIC: 2 µg/mL (≈ 11.7 µM)
[1]; Prevotella amnii, isolate 601318 G
  MIC: 1 µg/mL (≈ 5.84 µM)
[1]; Prevotella amnii, isolate 601336 33
  MIC: 1 µg/mL (≈ 5.84 µM)
[1]; Prevotella amnii, isolate 601340 37
  MIC: 2 µg/mL (≈ 11.7 µM)
[1]; Prevotella amnii, isolate 601341 H
  MIC: 1 µg/mL (≈ 5.84 µM)
[1]; Prevotella amnii, isolate 601350 A
  MIC: 0.5 µg/mL (≈ 2.92 µM)
[1]; Prevotella amnii, isolate 601365 6
  MIC: 0.25 µg/mL (≈ 1.46 µM)
[1]; Prevotella amnii, isolate 601368 24
  MIC: 0.5 µg/mL (≈ 2.92 µM)
[1]; Prevotella amnii, isolate 601369 13
  MIC: 2 µg/mL (≈ 11.7 µM)
[1]; Prevotella amnii, isolate 601375 L
  MIC: 1 µg/mL (≈ 5.84 µM)
[1]; Prevotella amnii, isolate 601377 9
  MIC: 1 µg/mL (≈ 5.84 µM)
[1]; Prevotella amnii, isolate 601379 24
  MIC: 1 µg/mL (≈ 5.84 µM)
[1]; Prevotella amnii, isolate 601388 G
  MIC: 1 µg/mL (≈ 5.84 µM)
[1]; Prevotella amnii, isolate 601399 10
  MIC: 1 µg/mL (≈ 5.84 µM)
[1]; Prevotella amnii, isolate 601405 A
  MIC: 1 µg/mL (≈ 5.84 µM)
[1]; Prevotella amnii, isolate 601411 L
  MIC: 1 µg/mL (≈ 5.84 µM)
[1]; Prevotella amnii, isolate 601413 10
  MIC: 1 µg/mL (≈ 5.84 µM)
[1]; Prevotella amnii, isolate 601418 27
  MIC: 1 µg/mL (≈ 5.84 µM)
[1]; Prevotella amnii, isolate 601426 A
  MIC: 1 µg/mL (≈ 5.84 µM)
[1]; Prevotella amnii, isolate 601430 14
  MIC: 1 µg/mL (≈ 5.84 µM)
[1]; Prevotella amnii, isolate 601434 13
  MIC: 0.5 µg/mL (≈ 2.92 µM)
[1]; Prevotella amnii, isolate 601458 13
  MIC: 1 µg/mL (≈ 5.84 µM)
[1]; Prevotella amnii, # tested 33
  MIC50: 1 µg/mL (≈ 5.84 µM)
  MIC90: 2 µg/mL (≈ 11.7 µM)
[2]; # tested 23
  MIC Range: 1 to 4 µg/mL
[2]; Peptoniphilus harei, isolate 426868V D
  MIC: 2 µg/mL (≈ 11.7 µM)
[2]; Peptoniphilus harei, isolate 601098V Q
  MIC: 1 µg/mL (≈ 5.84 µM)
[2]; Peptoniphilus harei, isolate 601203V 8
  MIC: 2 µg/mL (≈ 11.7 µM)
[2]; Peptoniphilus harei, isolate 601212V 15
  MIC: 1 µg/mL (≈ 5.84 µM)
[2]; Peptoniphilus harei, isolate 601233V R
  MIC: 4 µg/mL (≈ 23.4 µM)
[2]; Peptoniphilus harei, isolate 601248V 23
  MIC: 1 µg/mL (≈ 5.84 µM)
[2]; Peptoniphilus harei, isolate 601259V 11
  MIC: 2 µg/mL (≈ 11.7 µM)
[2]; Peptoniphilus harei, isolate 601289V C
  MIC: 2 µg/mL (≈ 11.7 µM)
[2]; Peptoniphilus harei, isolate 601293V 21
  MIC: 1 µg/mL (≈ 5.84 µM)
[2]; Peptoniphilus harei, isolate 601302V F1
  MIC: 2 µg/mL (≈ 11.7 µM)
[2]; Peptoniphilus harei, isolate 601311V R
  MIC: 1 µg/mL (≈ 5.84 µM)
[2]; Peptoniphilus harei, isolate 601326V F
  MIC: 2 µg/mL (≈ 11.7 µM)
[2]; Peptoniphilus harei, isolate 601342V F
  MIC: 1 µg/mL (≈ 5.84 µM)
[2]; Peptoniphilus harei, isolate 601355V D
  MIC: 1 µg/mL (≈ 5.84 µM)
[2]; Peptoniphilus harei, isolate 601365V 14
  MIC: 1 µg/mL (≈ 5.84 µM)
[2]; Peptoniphilus harei, isolate 601374V F
  MIC: 2 µg/mL (≈ 11.7 µM)
[2]; Peptoniphilus harei, isolate 601388V Q
  MIC: 1 µg/mL (≈ 5.84 µM)
[2]; Peptoniphilus harei, isolate 601399V 16
  MIC: 1 µg/mL (≈ 5.84 µM)
[2]; Peptoniphilus harei, isolate 601409V L
  MIC: 1 µg/mL (≈ 5.84 µM)
[2]; Peptoniphilus harei, isolate 601413V 16
  MIC: 2 µg/mL (≈ 11.7 µM)
[2]; Peptoniphilus harei, isolate 601426V D
  MIC: 1 µg/mL (≈ 5.84 µM)
[2]; Peptoniphilus harei, isolate 601430V 22
  MIC: 1 µg/mL (≈ 5.84 µM)
[2]; Peptoniphilus harei, isolate 601539V 25B
  MIC: 2 µg/mL (≈ 11.7 µM)
[2]; [4]
  MIC50: 1 µg/mL (≈ 5.84 µM)
  MIC90: 2 µg/mL (≈ 11.7 µM)
[3]; # tested 34
  MIC Range: 4 to 16 µg/mL
[3]; MIC 8 μg/ml
  Number of strains with indicated MIC: 6
[3]; MIC 16 μg/ml
  Number of strains with indicated MIC: 13
[3]; MIC […] μg/ml
  Number of strains with indicated MIC: 15
[3]; isolate 601096 25
  MIC: 4 µg/mL (≈ 23.4 µM)
[3]; isolate 601166 M
  MIC: 16 µg/mL (≈ 93.5 µM)
[3]; isolate 601202 21
  MIC: 16 µg/mL (≈ 93.5 µM)
[3]; isolate 601203 5
  MIC: 4 µg/mL (≈ 23.4 µM)
[3]; isolate 601209 A1
  MIC: 4 µg/mL (≈ 23.4 µM)
[3]; isolate 601212 9
  MIC: 4 µg/mL (≈ 23.4 µM)
[3]; isolate 601213 9A
  MIC: 16 µg/mL (≈ 93.5 µM)
[3]; isolate 601214 B
  MIC: 16 µg/mL (≈ 93.5 µM)
[3]; isolate 601241 13
  MIC: 4 µg/mL (≈ 23.4 µM)
[3]; isolate 601243 15
  MIC: 16 µg/mL (≈ 93.5 µM)
[3]; isolate 601255 10
  MIC: 4 µg/mL (≈ 23.4 µM)
[3]; isolate 601261 C
  MIC: 4 µg/mL (≈ 23.4 µM)
[3]; isolate 601283 20
  MIC: 16 µg/mL (≈ 93.5 µM)
[3]; isolate 601285 14
  MIC: 4 µg/mL (≈ 23.4 µM)
